Drawing on paper PMC7982674, “XMD-17-51 Inhibits DCLK1 Kinase and Prevents Lung Cancer Progression” (Frontiers in Pharmacology, 2021), this text covers IC50 for 1 compound.

Molecules are shown by their SMILES.

In the test the target is T1, Doublecortin-like kinase 1 (DCLK1) (Homo sapiens, UniProt O15075).
T1 construct: Purified kinase-active DCLK1 (cat. no., 02-139, Carna Biosciences)
T1 sequence (O15075 1-740): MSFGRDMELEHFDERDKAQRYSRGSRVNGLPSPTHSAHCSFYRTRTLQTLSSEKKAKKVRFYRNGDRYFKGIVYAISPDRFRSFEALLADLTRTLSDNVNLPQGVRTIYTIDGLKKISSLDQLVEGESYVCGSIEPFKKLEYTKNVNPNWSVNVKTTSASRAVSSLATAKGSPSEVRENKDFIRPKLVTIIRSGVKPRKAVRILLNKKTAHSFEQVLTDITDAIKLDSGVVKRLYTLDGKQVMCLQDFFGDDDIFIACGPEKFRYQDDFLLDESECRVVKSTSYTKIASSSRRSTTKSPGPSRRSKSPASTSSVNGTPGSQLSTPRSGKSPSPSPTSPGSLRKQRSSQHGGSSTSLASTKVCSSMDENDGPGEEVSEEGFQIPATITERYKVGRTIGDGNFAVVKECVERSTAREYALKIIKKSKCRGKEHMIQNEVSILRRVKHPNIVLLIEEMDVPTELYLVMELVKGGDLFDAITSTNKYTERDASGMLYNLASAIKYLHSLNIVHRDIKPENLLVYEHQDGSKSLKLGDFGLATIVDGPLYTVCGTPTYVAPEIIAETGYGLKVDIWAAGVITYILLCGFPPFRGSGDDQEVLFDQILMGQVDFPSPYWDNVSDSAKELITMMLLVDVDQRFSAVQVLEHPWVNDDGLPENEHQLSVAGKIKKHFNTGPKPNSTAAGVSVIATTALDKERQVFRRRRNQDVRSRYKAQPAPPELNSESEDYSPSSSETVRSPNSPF
The experiment in a line: cell-free kinase assay with ULight-CREBtide peptide substrate, […] ATP (Envision readout). The format is biochemical.

Consider `CN1C(=O)c2ccccc2N(C)c2nc(Nc3cnn(C4CCNCC4)c3)ncc21` [XMD-17-51], for which it took 14.6 nM to reach half-maximal inhibition (IC50).
